Test results: publication PMC8587849, “Antimicrobial and Anticancer Application of Silver(I) Dipeptide Complexes” (Molecules, 2021)
Where “and” joins values, the source holds several entries; their conditions need not be identical. Equal values may be shown once. Read-outs that look alike come from different tables or passages of the source.

Experiments:
S. thypimurium TA100 = test: Ames test, plate incorporation method; format: cell-based, Salmonella Typhimurium; conditions: positive control, 100µg
Excerpt: (§4) Salmonella Typhimurium TA 98 and TA 100 were obtained from the Czech Collection of Microorganisms. As a positive mutagen, 3-(5-nitro-2-furyl) acrylic acid (NFAA) was used.

S. thypimurium TA98 = test: Ames test, plate incorporation method; format: cell-based, Salmonella Typhimurium; conditions: positive control, 100µg
Excerpt: as §4

[1] = test system: Escherichia coli (E. coli) CCM 3988; test: Antibacterial activity, macrodilution method; format: cell-based
Protocol: (§5) Cultures of bacteria (in Mueller-Hinton broth, MHB) and yeasts (in Sabouraud’s growth medium, SB) were incubated under shaking (250 rpm) at 37 °C. The growth of bacteria and yeasts was evaluated by measuring the absorbance of the growing cultures (A550) until the cultures reached the stationary growth phase. […] The final concentration of DMSO never exceeded 1.0 vol. % in the control or treated samples. […] The IC50 and MIC90 with respect to MIC80 values were evaluated from toxicity curves.

[2] = test system: Staphylococcus aureus CCM 3953; test: Antibacterial activity, macrodilution method; format: cell-based; conditions: S. aureus
Protocol: as §5

[3] = test system: methicillin-resistant Staphylococcus aureus L12; test: Antibacterial activity, macrodilution method; format: cell-based; conditions: S. aureus L12 (MRSA)
Protocol: as §5

[4] = test system: Staphylococcus epidermidis CCM 7221; test: Antibacterial activity, macrodilution method; format: cell-based; conditions: S.epidermidis
Protocol: as §5

[5] = test system: Candida parapsilosis ATCC 22019; test: Antifungal activity (yeast), macrodilution method; format: cell-based; conditions: C. parapsilosis
Protocol: as §5

Candida albicans SC 5314 = test: Antifungal activity (yeast), macrodilution method; format: cell-based; conditions: C. albicans
Protocol: (§6) Cultures of bacteria (in Mueller-Hinton broth, MHB) and yeasts (in Sabouraud’s growth medium, SB) were incubated under shaking (250 rpm) at 37 °C. The growth of bacteria and yeasts was evaluated by measuring the absorbance of the growing cultures (A550) until the cultures reached the stationary growth phase. […] During culturing, the diameters of growing fungal colonies were measured at regular intervals [71, 72]. […] The final concentration of DMSO never exceeded 1.0 vol. % in the control or treated samples. […] The IC50 and MIC90 with respect to MIC80 values were evaluated from toxicity curves.

[6] = test system: Rhizopus oryzae CCM F-8284; test: Antifungal activity (filamentous fungi), macrodilution on solidified PDA; format: cell-based; conditions: for IC50: read-out: IC50; for MIC100: suffix s = fungistatic
Protocol: as §6

[7] = test system: Alternaria alternata CCM F-128; test: as above; format: cell-based; conditions: A. alternata; for IC50: read-out: IC50; for MIC100: suffix s = fungistatic
Protocol: as §6

A.flavus = test: Antifungal activity (filamentous fungi); format: cell-based; conditions: read-out: IC50 and MIC100 (class symbol)
Protocol: as §6

[8] = test system: Microsporum gypseum CCM F-8342; test: Antifungal activity (filamentous fungi), macrodilution on solidified PDA; format: cell-based; conditions: M.gypseum; read-out: IC50 and MIC100 (class symbol)
Protocol: as §6

S. aureus biofilm = test: Influence on S. aureus biofilm formation, crystal violet staining; format: cell-based; conditions: for A570 (biofilm, crystal violet): control A570 = 0.47; for I: biofilm intensity: control strong
Protocol: The biofilm was qualified by the crystal violet staining method. Briefly, overnight cultures of bacteria S.aureus (in MHB) and yeasts C.parapsislosis (in SB) were prepared. The fresh prepared growth media MHB and SB were inoculated with the overnight culture for a final concentration of 5 × 10^6 cells mL^−1. The microbial biofilm was formed in 96-well microplates for adherent cells. […] Prepared cultures were incubated for 2 h at 37 °C. […] The treatment with DMSO (solvent) alone served as a control. The inoculated microplates were incubated at 37 °C for the next 46 h. […] Microplates with mature biofilm were decanted and washed using 200 μL of saline solution. The plate was left for 15 min to dry completely at laboratory temperature. Then, 110 μL of 0.4% crystal violet dye was added to each well, and the plate was incubated for 15 min at laboratory temperature. After the decantation, the plate was washed 3 times with 200 μL of saline solution. Then, 200 μL of 96% ethanol was added. The microplate was left to incubate for 15 min at laboratory temperature. After the transfer of the well content to a clean microplate, the absorbance (570 nm) of released crystal violet (proportionate to biofilm cell density) was measured,, and the values were evaluated as weak biofilm formation A570 <0.1; 0.199>, medium biofilm formation A570 <0.2; 0.3>, strong biofilm formation A570 <0.301; 0.999>, or very strong biofilm formation A570 ≥ 1.00.

HeLa = test: MTS antiproliferative assay; format: cell-based, human; conditions: 72 h
Protocol: (§1) After 72 h of incubation, 10 µL of MTS was added to each well. […] IC50 values were calculated from MTS analyses.

MCF-7 [9] = test: MTS antiproliferative assay; format: cell-based, human; conditions: 72 h
Protocol: as §1

BLM = test: MTS antiproliferative assay; format: cell-based, human; conditions: BLM; MTS, 72 h
Protocol: (§2) Cells were maintained in standard conditions with an atmosphere containing 5% CO2 at 37 °C.
as §1

HCT116 = test: MTS antiproliferative assay; format: cell-based, human; conditions: 72 h
Protocol: as §2, §1

Jurkat = test: MTS antiproliferative assay; format: cell-based, human; conditions: 72 h
Protocol: as §2, §1

MDA-MB-231 [10] = test: MTS antiproliferative assay; format: cell-based, human; conditions: 72 h
Protocol: as §2, §1

BJ-5ta = test: MTS assay on fibroblasts; format: cell-based; conditions: BJ-5ta human skin fibroblasts, 72 h
Protocol: as §1

CT DNA = test: UV-Vis absorption titration with CT DNA; format: binding, calf; conditions: 0.01 M Tris-HCl pH 7.4; complex 7.85 × 10^−5 M
Protocol: UV–vis spectra were measured in 0.01 M Tris-HCl buffer (pH 7.4) using a Varian Cary 100 Bio spectrophotometer in the range of 230–320 nm and recorded at room temperature (24 °C) using a quartz cuvette of 1 cm path length. The concentration of investigated Ag(I) complexes was 7.85 × 10^−5 M. During the titration, an aliquot of buffered CT DNA solution was added to each cuvette (sample and reference) to eliminate the absorbance of DNA itself. The DNA concentration per nucleotide was determined by absorption spectroscopy using the molar absorption coefficient (6600 M^−1cm^−1) at 260 nm.

CT DNA–HO system = test: Fluorescence competitive binding with Hoechst 33258; design: species or system calf; conditions: displacement of Hoechst 33258 from CT DNA; 462 nm; 10 mM Tris-HCl pH 7.4
Protocol: The fluorescence competitive binding studies of silver(I) complexes with Hoechst 33 258 (HO) were performed on a Varian Cary Eclipse spectrophotometer. The emission spectra of DNA–HO were measured in the range of 400–550 nm using an excitation wavelength of 343 nm with a slit width of 5 nm for the excitation and 5 nm for the emission beam. […] Ksv quenching constant was determined according to the classical Stern-Volmer Equation (1) in [63, 75]:F0/F = 1 + KSV [Q](1) where F0 and F are the fluorescence intensities in the absence and the presence of the quencher at 462 nm, KSV is the Stern-Volmer quenching constant and [Q] is the concentration of the quencher.

BLM cells = test: Cell cycle analysis by flow cytometry; format: cell-based, human; conditions: treated with IC50
Protocol: (§3) Prior to each analysis, cells were washed in PBS, followed by resuspending in staining solution (0.5 mg/mL ribonuclease A, 0.2% final concentration Triton X-100, propidium iodide 0.025 mg/mL in 500 µL PBS) (all Sigma Aldrich), and incubated for 30 min at room temperature in the dark. For analysis of stained cells, a BD FACSCalibur flow cytometer (BD Bio-sciences) was used. A minimum of 1 × 10^4 events were analysed per analysis.

HCT116 cells = test: Cell cycle analysis by flow cytometry; format: cell-based, human; conditions: treated with IC50
Protocol: as §3

Jurkat cells = test: Cell cycle analysis by flow cytometry; format: cell-based, human; conditions: treated with IC50
Protocol: as §3

MDA-MB-231 cells = test: Cell cycle analysis by flow cytometry; format: cell-based, human; conditions: treated with IC50
Protocol: as §3

MCF-7 [11] = test system: MCF-7; design: method as in PMID 33461021; conditions: cited from earlier work
MDA-MB-231 [12] = test system: MDA-MB-231; design: method as in PMID 33461021; conditions: cited from earlier work
MCF-7 cells = conditions: cited from earlier work

For `O=C(O)C=Cc1ccc([N+](=O)[O-])o1` [NFAA, 3-(5-nitro-2-furyl) acrylic acid], the “Revertants CFU No. ± SD” value (S. thypimurium TA100) was 1352± 124 CFU and the “Revertants CFU No. ± SD” value (S. thypimurium TA98) was 28 ± 2 CFU.

Compound [Ag2(HGlyAsp)(NO3)]n [AgGlyAsp] has an IC50 [1] of 17 µM, an MIC90 [1] of 23 µmol/L and an IC50 [2] of 51 µM. It also gave an MIC90 [2] of 96 µmol/L, an IC50 [3] of 31 µM and an MIC90 [3] of 49 µmol/L. The IC50 [4] was 25 µM, the MIC90 [4] was 50 µmol/L and the IC50 [5] was 50 µM. The MIC80 [5] was 100 µmol/L, the IC50 (Candida albicans SC 5314) was 73 µM and the MIC80 (Candida albicans SC 5314) was 100 µmol/L. The IC50 [6] was 73 µM, the MIC100 [6] was 100 µmol/L and the IC50 [7] was 35 µM. It also gave an MIC100 [7] of over 100 µmol/L, an IC50 (A.flavus) of over 100 µM and an IC50 [8] of over 100 µM. The “A570 (biofilm, crystal violet)” value (S. aureus biofilm; complex concentration 5 µM) was 0.36, the “I: biofilm intensity” value (S. aureus biofilm; complex concentration 5 µM) was “strong (strong biofilm formation A570 <0.301; 0.999>)” and the “A570 (biofilm, crystal violet)” value (S. aureus biofilm; complex concentration 10 µM) was 0.35. For the same compound, the “I: biofilm intensity” value (S. aureus biofilm; complex concentration 10 µM) was “strong (strong biofilm formation A570 <0.301; 0.999>)”, the “A570 (biofilm, crystal violet)” value (S. aureus biofilm; complex concentration 50 µM) was 0.24 and the “A570 (biofilm, crystal violet)” value (S. aureus biofilm; complex concentration 100 µM) was 0.25. The “I: biofilm intensity” value (S. aureus biofilm; complex concentration 100 µM) was “medium (medium biofilm formation A570 <0.2; 0.3>)”, the IC50 (HeLa) was 33.3 µM and the IC50 (MCF-7 [9]) was 33.8 µM. The IC50 (BLM) was 35.6 µM, the IC50 (HCT116) was 35.5 µM and the IC50 (Jurkat) was 36.8 µM. The IC50 (MDA-MB-231 [10]) was 33.6 µM, the IC50 (BJ-5ta) was 57.6 µM and the Hypochromism (CT DNA) was 30% and 30.8%. The “Δλmax (red shift on addition of CT DNA)” value (CT DNA) was 13 nm, the “KSV (Stern-Volmer quenching constant)” value (CT DNA–HO system) was 8.33 ± 0.07 × 10^4 M^−1 and the “cells in G2/M” value (BLM cells; 24 h) was 14.8 ± 0.2%. For the same compound, the “cells in S” value (BLM cells; 24 h) was 13.8 ± 3.0%, the “cells in Sub-G0” value (BLM cells; 24 h) was 51.7% and the “cells in G2/M” value (BLM cells; 48 h) was 10.9 ± 2.8%. For the same compound, the “cells in S” value (BLM cells; 48 h) was 10.8 ± 2.5%, the “cells in Sub-G0” value (BLM cells; 48 h) was 56.1% and the “cells in Sub-G0” value (BLM cells; 72 h) was 59.3%. For the same compound, the “cells in G2/M” value (HCT116 cells; 24 h) was 16.8 ± 2.4%, the “cells in S” value (HCT116 cells; 24 h) was 16.3 ± 2.3% and the “cells in G2/M” value (HCT116 cells; 48 h) was 11.7 ± 3.4%. For the same compound, the “cells in S” value (HCT116 cells; 48 h) was 10.3 ± 1.3%, the “cells in G2/M” value (Jurkat cells; 24 h) was 15.5 ± 2.7% and the “cells in S” value (Jurkat cells; 24 h) was 14.0 ± 0.6%. For the same compound, the “cells in G2/M” value (Jurkat cells; 48 h) was 6.3 ± 0.3%, the “cells in S” value (Jurkat cells; 48 h) was 12.4 ± 1.1% and the “cells in G2/M” value (MDA-MB-231 cells; 24 h) was 30.6%. For the same compound, the “cells in G2/M” value (MDA-MB-231 cells; 48 h) was 25.8 ± 0.5%, the “cells in S” value (MDA-MB-231 cells; 48 h) was 10.6 ± 1.9% and the “cells in G2/M” value (MDA-MB-231 cells; 72 h) was 9.6 ± 1.2%. For the same compound, the “cells in S” value (MDA-MB-231 cells; 72 h) was 7.1 ± 2.4%.

For [Ag3(Gly)2NO3]n, the IC50 (MCF-7 [11]) is listed as 2600 ± 100 nM, the IC50 (MDA-MB-231 [12]) is listed as 2700 ± 200 nM and the “cells in sub-G0 population” value (MCF-7 cells; MFC-7 cancer cells, Control 9.8%, ref Banti et al.) is listed as 42.7%. The “cells in S phase” value (MCF-7 cells) was 24.1%.

In the case of [Ag(GlyGly)]n(NO3)n [AgGlyGly], the IC50 [1] is reported as 6 µM, the MIC90 [1] is reported as 10 µmol/L and the IC50 [2] is reported as 12 µM. The MIC90 [2] was 22 µmol/L, the IC50 [3] was 15 µM and the MIC90 [3] was 38 µmol/L. The IC50 [4] was 10 µM, the MIC90 [4] was 20 µmol/L and the IC50 [5] was 30 µM. The MIC80 [5] was 70 µmol/L, the IC50 (Candida albicans SC 5314) was 70 µM and the MIC80 (Candida albicans SC 5314) was 100 µmol/L. It also gave an IC50 [6] of 30 µM, an MIC100 [6] of 50 µmol/L and an IC50 [7] of 71 µM. For the same compound, the MIC100 [7] was over 100 µmol/L, the IC50 (A.flavus) was over 100 µM and the IC50 [8] was over 100 µM. For the same compound, the “A570 (biofilm, crystal violet)” value (S. aureus biofilm; complex concentration 5 µM) was 0.72, the “I: biofilm intensity” value (S. aureus biofilm; complex concentration 5 µM) was “strong (strong biofilm formation A570 <0.301; 0.999>)” and the “A570 (biofilm, crystal violet)” value (S. aureus biofilm; complex concentration 10 µM) was 0.39. The “I: biofilm intensity” value (S. aureus biofilm; complex concentration 10 µM) was “strong (strong biofilm formation A570 <0.301; 0.999>)”, the “A570 (biofilm, crystal violet)” value (S. aureus biofilm; complex concentration 25 µM) was 0.26 and the “A570 (biofilm, crystal violet)” value (S. aureus biofilm; complex concentration 50 µM) was 0.22. The “A570 (biofilm, crystal violet)” value (S. aureus biofilm; complex concentration 100 µM) was 0.28, the “I: biofilm intensity” value (S. aureus biofilm; complex concentration 100 µM) was “medium (medium biofilm formation A570 <0.2; 0.3>)” and the IC50 (HeLa) was 38.3 µM. For the same compound, the IC50 (MCF-7 [9]) was 9 µM, the IC50 (BLM) was 21.2 µM and the IC50 (HCT116) was 34.5 µM. For the same compound, the IC50 (Jurkat) was 14.8 µM, the IC50 (MDA-MB-231 [10]) was 13 µM and the IC50 (BJ-5ta) was 47.1 µM. For the same compound, the Hypochromism (CT DNA) was 20.1%, the “Δλmax (red shift on addition of CT DNA)” value (CT DNA) was 22 nm and the “KSV (Stern-Volmer quenching constant)” value (CT DNA–HO system) was 4.51 ± 0.05 × 10^4 M^−1. The “cells in G2/M” value (BLM cells; 48 h) was 32.7 ± 2.4%, the “cells in S” value (BLM cells; 48 h) was 15.3 ± 1.5% and the “cells in G2/M” value (HCT116 cells; 72 h) was 7.1 ± 2.3%. The “cells in S” value (HCT116 cells; 72 h) was 9.8 ± 0.1%, the “cells in G2/M” value (Jurkat cells; 72 h) was 8.9 ± 0.1% and the “cells in S” value (Jurkat cells; 72 h) was 11.1 ± 0.8%. For the same compound, the “cells in G2/M” value (MDA-MB-231 cells; 72 h) was 14.9 ± 0.1% and the “cells in S” value (MDA-MB-231 cells; 72 h) was 14.4 ± 0.1%.
